Measured values from patent US4824996A, “Phospholipase A2 inhibitors” (American Home Products Corporation, priority 1986, dated 1989).
Read-outs that look alike come from different tables or passages of the source.

Experiments:
human platelet PLA2 = target: T1, human platelet PLA2 (Homo sapiens, UniProt P14555); assay: in vitro assay of inhibition of human platelet PLA2 (hydrolysis of [1-14C]oleic acid labelled E. coli membrane phospholipids); format: biochemical
T1 construct: The PLA2 enriched supernatant fluid is removed; from tissue; host or cells: expired human platelets from the blood bank (acid extract, 10,000 g supernatant)
T1 sequence (P14555 21-144): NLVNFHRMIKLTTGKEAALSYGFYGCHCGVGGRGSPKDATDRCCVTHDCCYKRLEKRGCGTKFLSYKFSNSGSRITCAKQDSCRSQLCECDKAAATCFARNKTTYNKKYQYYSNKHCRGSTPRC
Description: The ability of the compounds to inhibit the activity of PLA2 enzyme is measured in the following in vitro assay.
(§1) The assay is carried out as follows:
E. coli, cultured to exponential growth, are sedimented for 15 minutes at 10,000 g and resuspended in sterile isotonic saline (1-3 ml). 10-25 μCi [1-^14 C] oleic acid is added to a sterile flask, evaporated by N2 and resolubilized with 0.3 ml 20% fatty acid-free BSA. 75-100 ml of nutrient broth and 1 ml E. coli are then added to each flask and incubated for 2-3 hours at 37° C. [1-^14 C] oleic acid labelled E. coli are then sedimented, suspended in saline and added to fresh nutrient broth and incubated for 1.5 hours at 37° C. to complete [1-^14 C] oleic acid incorporation into the phospholipids. After overnight refrigeration of cultures, E. coli are again sedimented, suspended in saline and autoclaved for 15 minutes at 120° C. E. coli cultures are washed twice with saline (first wash contains 1% BSA) and resuspended in saline. Non-labelled E. coli cultures are also prepared in the same manner. Cell number is determined by measuring the optical density at 550 nm ([…]=1 O.D.). The amount of radioactivity associated with cells is determined by counting a defined volume of cell suspension. The specific activity is subsequently adjusted by adding non-labelled E. coli to yield 2-4×10 cpm per 1×10^10 E. coli. [1-^14 C] arachidonic acid-labelled E. coli are similarly prepared.
Platelet PLA2 Preparation
Expired human platelets from the blood bank are centrifuged for 15 minutes at 200 g to obtain a platelet rich plasma fraction and to remove the red blood cells. Platelets are sedimented for 15 minutes at 2500 g and the plasma is removed before adding cold 0.18N […] (4 ml/unit). Platelets are homogenized, incubated for 1 hour at 4° C., homogenized again and centrifuged for 15 minutes at 10,000 g. The PLA2 enriched supernatant fluid is removed and the amount of protein is determined by the Lowry method. The preparation is divided into various portions and stored at -20° C.
The assay measures the hydrolysis of E. coli membrane phospholipids and the release of free [1-^14 C] oleic acid from the C-2 position of phospholipids by human platelet PLA2. To ice cold 15×100 mm test tubes, the following additions are made: 2,5×10 E. coli (equivalent to 4 nmol phospholipid), 5 mM Ca^++, 100 mM Tris buffer (pH=7.4), 100 μg platelet extract (or an amount to produce 20-30% hydrolysis), drug or vehicle. The final volume is adjusted to 500 μl with water. Mixtures are vortexed and incubated for 30 minutes in a shaking water bath. It should be noted that preliminary experiments are always performed with each new batch of platelets to establish linear hydrolysis of phospholipids with regard to protein concentration and time. The enzyme reaction is stopped by the addition of 3 volumes of CHCl3 to each tube which is vortexed and then centrifuged for 5 minutes at 500 g. The lower CHCl3 /CH3 OH phase is removed and evaporated under N. The dried residue is redissolved in 50 μl CHCl3 :CH3 OH (9:1 v/v), spotted on aluminum-backed chromatographic plates and developed in a solvent system consisting of petroleum ether:diethyl ether:acetic acid (80:20:1). Free fatty acid ([1-^14 C]oleic acid) and [1-^14 C]oleic acid labeled phospholipids are visualized with exposure to iodine vapors. Radioactive areas that cochromatographed with authentic oleic acid and phospholipid standards are cut out and placed in a scintillation vial. One ml CH3 OH and 10 ml Hydrofluor are added to each cut strip and radioactivity is determined by liquid scintillation counting.
The percent hydrolysis is calculated by the following equation: [formula]

[1] = system: synthesis of LTC4 by murine peritoneal macrophages; assay: inhibition of LTC4 synthesis by murine peritoneal macrophages; format: cell-based, CD-1 mice; conditions: compounds at 10 μm (so in the source)
Description: (§2) The ability of the compounds of the invention to inhibit both leukotriene and prostaglandin synthesis is examined in an assay which measures the ability of the compounds of the invention to inhibit the synthesis of arachidonic acid, PGE2 and LTC4 by murine peritoneal macrophages.
as §1
(§3) Macrophages are removed from the peritoneal cavity of 55-57 day old CD-1 mice (killed by CO2 asphyxiation) by peritoneal lavage and centrifuged at 400×g for ten minutes. The cells are resuspended in Medium 199 and 4×10^6 cells are allowed to adhere on 35×10 mm Petri dishes for 1.5 hours at 37° C. in an atmosphere of 95% air and 5% CO2. The cell monolayers are washed and incubated overnight in Medium 199 supplemented with 10% heat inactivated bovin serum containing 1 μCi[^14 C]-arachidonic acid, or in the absence of ^14 C-arachidonic acid when the supernatant is to be assayed by radioimmunoassay (RIA). The labeled cells are then washed and incubated at 37° C. for 2 hours in Medium 199 with the prostaglandin stimuli, zymosan, or 12-o-tetradecanoyl-phorbol-13-acetate (TPA) and in the presence or absence of test compounds. Following incubation, the supernatant is removed and subjected to radioimmunoassay in order to determine the percent inhibition of arachidonic acid, prostaglandin E2 and leukotriene C4 by the test compounds.

[2] = system: lipoxygenase and/or cyclooxygenase pathways of arachidonic acid; assay: in vivo arachidonic acid (AA)-induced murine ear edema test; parameters: species or system Swiss Webster female mice; conditions: 1 mg/ear, 30 minutes prior to AA, ears measured after 1 hour
Text: (§4) The ability of the compounds of the invention to inhibit the lipoxygenase and/or cyclooxygenase pathways of arachidonic acid is examined in the in vivo arachidonic acid (AA)-/12-O-tetradecanoylphorbol acetate (TPA)-induced murine ear edema test.
According to this test, Swiss Webster female mice (Buckshire), approximately 8 weeks old, are placed into plastic boxes in groups of six. Eight groups of mice receive AA topically on the right ear, and another 8 groups receive TPA topically on the right ear. AA and TPA are dissolved in acetone at concentrations of 100 mg/ml ad 100 μg/ml respectively. The phlogistics are applied to the right ear by the means of an automatic pipet. Volumes of 10 μl are applied to the inner and outer surfaces of the ear. Each mouse receives either 2 mg/ear AA or […] TPA. The left ear (control) receives acetone delivered in the same manner. […]
(§5) Measurements are taken with Oditest calipers, 0-10 mm with 0.01 graduations. The right and left ears are measured after 1 hour AA-induced inflammation and 4 hours after TPA-induced inflammation.
(§6) The difference between right and left ear thickness is calculated and the significance is determined by a one way analysis of variance with Dunnett's comparisons to control (P=0.05). Drug effects are expressed as a percent change from control values: [formula]

[3] = system: synthesis of arachidonic acid by murine peritoneal macrophages; assay: inhibition of arachidonic acid (AA) synthesis by murine peritoneal macrophages; format: cell-based, CD-1 mice; conditions: compounds at 10 μm (so in the source)
Description: as §2, §1, §3

[4] = system: lipoxygenase and/or cyclooxygenase pathways of arachidonic acid; assay: in vivo 12-O-tetradecanoylphorbol acetate (TPA)-induced murine ear edema test; parameters: species or system Swiss Webster female mice; conditions: 30 minutes after TPA, ears measured after 4 hours; for % Change from Control, TOPICAL TPA: 1 mg/ear; for % Change from Control, ORAL TPA: 100 mg/kg
Text: as §4
According to this test, Swiss Webster female mice (Buckshire), approximately 8 weeks old, are placed into plastic boxes in groups of six. Eight groups of mice receive AA topically on the right ear, and another 8 groups receive TPA topically on the right ear. AA and TPA are dissolved in acetone at concentrations of 100 mg/ml ad 100 μg/ml respectively. The phlogistics are applied to the right ear by the means of an automatic pipet. Volumes of 10 μl are applied to the inner and outer surfaces of the ear. Each mouse receives either 2 mg/ear AA or 4 μg/ear TPA. The left ear (control) receives acetone delivered in the same manner. Oral and topical dosing regimens are as follows: (1) drugs are given 30 minutes prior to AA treatment, and (2) drugs are given 30 minutes after treatment with TPA.
as §5, §6

[5] = system: synthesis of PGE2 by murine peritoneal macrophages; assay: inhibition of PGE2 synthesis by murine peritoneal macrophages; format: cell-based, CD-1 mice; conditions: compounds at 10 μm (so in the source)
Description: as §2, §1, §3

[6] = compounds of the invention, Table 1, read-out: IC50 (inhibition of PLA2)

Row | Molecule | inhibition at 100 µM (human platelet PLA2) [%] | Mean % Inhibition ± S.E., LTC4 [1] [%] | Mean % Inhibition ± S.E., AA [3] [%] | % Change from Control, TOPICAL TPA [4] [%] | IC50 (human platelet PLA2; [6]) [µM] | Mean % Inhibition ± S.E., PGE2 [5] [%] | other results
1 | CCCCCCCCCCCCNC(=O)OCCCCCCN(C)C [Example 1, Dodecylcarbamic acid 6-(dimethylamino)hexyl ester] | 100 |  |  |  |  |  | 
2 | CCCCCCCCCCCCCCCCNC(=O)OCCCCCCN(C)C [Example 2, Hexadecylcarbamic acid 6-(dimethylamino)hexyl ester] | 100 | 81.00 ± 1.79 | 36.92 ± 6.29 | -42 | 30 | 81.18 ± 2.06 | % Change from Control, TOPICAL AA [2]: -29%
3 | CCCCCCCCCCCCCCCCNC(=O)OCCCN(C)C [Example 3, Hexadecylcarbamic acid 3-(dimethylamino)propyl ester] | 100 |  |  |  |  |  | 
4 | CCCCCCCCCCCCCCC(=O)NCCCN(C)C [Example 4, N-[3-(dimethylamino)propyl]pentadecanamide] | 100 | 91.95 ± 2.57 | 34.12 ± 5.58 | -48 | 6.8 | 48.62 ± 9.32 | % Change from Control, ORAL TPA [4]: -60%
5 | CCCCCCNC(=O)OCCCCCCN(C)C [Example 5, Hexylcarbamic acid 6-(dimethylamino)hexyl ester] | 11 |  |  |  |  |  | 
6 | CCCCCCCCCCCCCCCCNC(=O)NCCCN(C)C [Example 6, N-[3-(dimethylamino)propyl]-N'-hexadecylurea] | 100 |  |  |  |  |  | 
7 | CCCCCCCCCCCCCCCCS(=O)(=O)NCCCCCCCN(CC)CC [Example 7] | 94.4 |  |  |  |  |  | 
8 | CCCCCCCCCCCCCC(=O)NN(C)C [Example 8, Tetradecanoic acid 2,2-dimethylhydrazide] | 55.9 |  |  |  |  |  | 
9 | CCCCCCCCCCCCCC(=O)N1CC(C)NC(C)C1 (stereo not shown) [Example 9, 3,5-Dimethyl-1-(1-oxotetradecyl)piperazine] | 100 | 82.15 ± 2.48 | 50.42 ± 2.50 | -55 | 8.5 | 73.50 ± 8.20 | % Change from Control, ORAL TPA [4]: -25%
10 | Gold Sodium Thiomalate [reference compound] |  |  |  |  |  |  | IC50 (human platelet PLA2; standard drugs, read-out: Inhibition of PLA2 Activity IC50): 43 µM
